Data: PMC3391414 (Journal of Agricultural and Food Chemistry, 2011)
Entries after “also recorded” stand apart in the source; their conditions may differ.

Tests used:
UGT1A3 = molecular target: T1, UGT1A3 (Homo sapiens, UniProt P35503); assay: Glucuronidation by recombinant human UGT1A3
T1 sequence (P35503 29-534): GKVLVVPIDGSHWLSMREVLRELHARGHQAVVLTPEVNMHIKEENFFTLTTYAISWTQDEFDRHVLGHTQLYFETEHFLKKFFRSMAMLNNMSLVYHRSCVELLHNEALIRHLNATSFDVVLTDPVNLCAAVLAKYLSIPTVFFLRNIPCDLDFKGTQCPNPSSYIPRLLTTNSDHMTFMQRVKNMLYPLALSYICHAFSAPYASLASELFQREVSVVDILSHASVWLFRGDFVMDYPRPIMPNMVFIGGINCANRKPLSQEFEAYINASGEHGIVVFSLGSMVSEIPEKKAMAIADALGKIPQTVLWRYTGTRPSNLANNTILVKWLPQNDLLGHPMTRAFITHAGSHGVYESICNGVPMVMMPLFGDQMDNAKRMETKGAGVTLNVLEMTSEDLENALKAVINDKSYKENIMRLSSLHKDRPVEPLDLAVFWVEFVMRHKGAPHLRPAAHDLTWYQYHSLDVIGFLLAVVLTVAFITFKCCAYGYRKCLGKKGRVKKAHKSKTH

[1] = test system: UGT 1A1, 1A3, 1A6, 1A7, 1A8, 1A9, 1A10 and 2B7; assay: Glucuronidation by the panel of 8 recombinant human UGT isoforms; conditions: substrate 10 μM
UGT1A9 = molecular target: T2, UGT1A9 (Homo sapiens, UniProt O60656); assay: Glucuronidation by recombinant human UGT1A9
T2 sequence (O60656 26-530): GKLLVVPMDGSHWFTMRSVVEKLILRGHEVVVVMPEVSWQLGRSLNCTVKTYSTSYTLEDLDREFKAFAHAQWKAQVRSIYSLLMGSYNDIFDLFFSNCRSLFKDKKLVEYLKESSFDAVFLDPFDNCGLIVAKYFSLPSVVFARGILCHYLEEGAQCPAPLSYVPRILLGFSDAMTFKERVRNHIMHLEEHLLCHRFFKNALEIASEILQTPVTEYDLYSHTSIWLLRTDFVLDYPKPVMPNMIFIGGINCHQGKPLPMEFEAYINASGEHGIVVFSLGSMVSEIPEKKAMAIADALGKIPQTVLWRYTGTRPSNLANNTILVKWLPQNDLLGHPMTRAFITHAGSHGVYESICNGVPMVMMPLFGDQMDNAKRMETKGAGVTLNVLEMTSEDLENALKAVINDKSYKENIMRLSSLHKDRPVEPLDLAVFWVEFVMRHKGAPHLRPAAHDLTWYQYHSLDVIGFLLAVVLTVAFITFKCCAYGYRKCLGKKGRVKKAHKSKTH

UGT1A1 = molecular target: T3, UGT1A1 (Homo sapiens, UniProt P22309); assay: Glucuronidation by recombinant human UGT1A1
T3 sequence (P22309 26-533): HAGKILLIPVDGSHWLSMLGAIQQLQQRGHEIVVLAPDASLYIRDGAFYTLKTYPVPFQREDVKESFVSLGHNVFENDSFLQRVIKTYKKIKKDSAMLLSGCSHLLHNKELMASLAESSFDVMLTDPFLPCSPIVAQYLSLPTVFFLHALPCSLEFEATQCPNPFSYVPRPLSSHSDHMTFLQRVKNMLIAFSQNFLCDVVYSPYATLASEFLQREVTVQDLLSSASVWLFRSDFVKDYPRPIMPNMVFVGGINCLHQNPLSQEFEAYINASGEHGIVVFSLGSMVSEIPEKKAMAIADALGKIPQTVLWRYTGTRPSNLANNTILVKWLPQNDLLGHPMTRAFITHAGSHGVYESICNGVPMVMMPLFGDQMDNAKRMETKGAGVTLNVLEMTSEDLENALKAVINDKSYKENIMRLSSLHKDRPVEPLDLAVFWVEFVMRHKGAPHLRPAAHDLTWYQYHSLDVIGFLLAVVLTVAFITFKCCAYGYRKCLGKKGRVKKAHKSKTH

UGT1A8 = molecular target: T4, UGT1A8 (Homo sapiens, UniProt Q9HAW9); assay: Glucuronidation by recombinant human UGT1A8; conditions: UGT1A8, substrate 35 μM
T4 sequence (Q9HAW9 26-530): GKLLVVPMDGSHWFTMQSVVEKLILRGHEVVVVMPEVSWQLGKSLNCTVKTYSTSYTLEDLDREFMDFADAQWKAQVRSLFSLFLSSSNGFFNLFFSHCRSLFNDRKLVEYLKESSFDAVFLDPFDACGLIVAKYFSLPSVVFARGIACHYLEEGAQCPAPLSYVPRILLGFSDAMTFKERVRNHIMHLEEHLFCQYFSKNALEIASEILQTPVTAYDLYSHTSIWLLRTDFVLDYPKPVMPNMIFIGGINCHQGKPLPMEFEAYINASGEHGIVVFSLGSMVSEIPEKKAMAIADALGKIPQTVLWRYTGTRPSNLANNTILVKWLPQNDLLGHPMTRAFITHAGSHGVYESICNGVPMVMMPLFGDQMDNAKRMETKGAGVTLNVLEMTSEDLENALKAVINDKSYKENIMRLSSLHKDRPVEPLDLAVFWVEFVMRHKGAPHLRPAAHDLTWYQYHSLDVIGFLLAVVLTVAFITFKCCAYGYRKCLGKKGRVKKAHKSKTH

UGT1A6 = molecular target: T5, UGT1A6 (Homo sapiens, UniProt P19224); assay: Glucuronidation by recombinant human UGT1A6; conditions: UGT1A6, substrate 10 μM
T5 sequence (P19224 27-532): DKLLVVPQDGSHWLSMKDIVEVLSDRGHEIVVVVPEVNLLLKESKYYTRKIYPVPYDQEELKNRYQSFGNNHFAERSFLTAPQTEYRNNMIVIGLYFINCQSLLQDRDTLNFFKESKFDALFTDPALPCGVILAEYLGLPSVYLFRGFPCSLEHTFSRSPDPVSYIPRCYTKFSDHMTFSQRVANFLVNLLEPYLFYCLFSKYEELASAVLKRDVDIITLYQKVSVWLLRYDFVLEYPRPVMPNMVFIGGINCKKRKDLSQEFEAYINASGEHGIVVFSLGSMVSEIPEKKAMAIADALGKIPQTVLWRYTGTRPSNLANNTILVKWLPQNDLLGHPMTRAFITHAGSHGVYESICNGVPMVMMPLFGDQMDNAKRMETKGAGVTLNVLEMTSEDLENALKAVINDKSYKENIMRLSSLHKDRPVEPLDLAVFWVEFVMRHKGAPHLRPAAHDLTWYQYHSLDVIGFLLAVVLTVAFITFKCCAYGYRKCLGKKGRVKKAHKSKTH

Row | Degree of regiospecificity (major glucuronide in bracket) (UGT1A3; UGT1A3, substrate 2.5 μM) | Degree of regiospecificity (major glucuronide in bracket) (UGT1A3; UGT1A3, substrate 10 μM) | Degree of regiospecificity (major glucuronide in bracket) (UGT1A9; UGT1A9, substrate 2.5 μM) | Degree of regiospecificity (major glucuronide in bracket) (UGT1A9; UGT1A9, substrate 10 μM) | Degree of regiospecificity (major glucuronide in bracket) (UGT1A1; UGT1A1, substrate 2.5 μM) | Degree of regiospecificity (major glucuronide in bracket) (UGT1A1; UGT1A1, substrate 10 μM) | Structure (SMILES) | Glucuronidation and regiospecificity across the 8 UGT isoforms [1] | other results
1 | Dominant (3-O) | No (3-O, 4’-O) | Dominant (3-O) | Dominant (3-O) | No (3-O, 4’-O) | No (3-O, 4’-O) | O=c1c(O)c(-c2ccc(O)cc2)oc2ccccc12 [4'HFnol, 3,4’-dihydroxyflavone] | most isoforms showed dominant regiospecificity by glucuronidating almost only the 3-O position | Degree of regiospecificity (major glucuronide in bracket) (UGT1A3; UGT1A3, substrate 10 μM, listed as 4’HFnol): no regiospecificity; Degree of regiospecificity (major glucuronide in bracket) (UGT1A1; UGT1A1, substrate 2.5 μM, listed as 4’HFnol): did not show any regiospecific preference; Degree of regiospecificity (major glucuronide in bracket) (UGT1A1; UGT1A1, substrate 10 μM, listed as 4’HFnol): no regiospecificity; also recorded: did not show any regiospecific preference
2 | Dominant (4’-O) | Moderate (4’-O) | Dominant (4’-O) | Dominant (4’-O) | Dominant (4’-O) | Dominant (4’-O) | O=c1cc(-c2ccc(O)cc2)oc2cccc(O)c12 [5,4'DHF, 5,4’-dihydroxyflavone] | 4’-O was the preferred position of glucuronidation in all cases | Degree of regiospecificity (major glucuronide in bracket) (UGT1A3; UGT1A3, substrate 10 μM, listed as 5,4’DHF): moderate regiospecificity for 4’-O position; Degree of regiospecificity (major glucuronide in bracket) (UGT1A9; UGT1A9, substrate 10 μM, listed as 5,4’DHF): dominant regiospecificity; Degree of regiospecificity (major glucuronide in bracket) (UGT1A1; UGT1A1, substrate 2.5 μM, listed as 5,4’DHF): dominant regiospecificity; Degree of regiospecificity (major glucuronide in bracket) (UGT1A1; UGT1A1, substrate 10 μM, listed as 5,4’DHF): dominant regiospecificity
3 | Dominant (7-O) | Dominant (7-O) | Moderate (7-O) | Moderate (7-O) | Weak (7-O) | Moderate (7-O) | O=c1cc(-c2ccc(O)cc2)oc2cc(O)ccc12 [7,4'DHF, 7,4’-dihydroxyflavone] | except UGT1A6, all metabolizing isoforms glucuronidated both hydroxyl groups at C-7 and C-4’ positions | Degree of regiospecificity (major glucuronide in bracket) (UGT1A3; UGT1A3, substrate 10 μM, listed as 7,4’DHF): dominant regiospecificity for glucuronidation of 7-O position; Degree of regiospecificity (major glucuronide in bracket) (UGT1A9; UGT1A9, substrate 10 μM, listed as 7,4’DHF): moderate regiospecificity for glucuronidation of 7-O position; Degree of regiospecificity (major glucuronide in bracket) (UGT1A1; UGT1A1, substrate 2.5 μM, listed as 7,4’DHF): weak; Degree of regiospecificity (major glucuronide in bracket) (UGT1A1; UGT1A1, substrate 10 μM, listed as 7,4’DHF): moderate regiospecificity for glucuronidation of 7-O position
4 |  |  |  |  |  |  | O=c1c(O)c(-c2ccccc2)oc2ccccc12 [Fnol, 3-hydroxyflavone] | could be metabolized by any of the 8 UGT isoforms tested | 

Row | Structure (SMILES) | Degree of regiospecificity (major glucuronide in bracket) (UGT1A3; UGT1A3, substrate 2.5 μM) | Degree of regiospecificity (major glucuronide in bracket) (UGT1A3; UGT1A3, substrate 10 μM) | Degree of regiospecificity (major glucuronide in bracket) (UGT1A9; UGT1A9, substrate 2.5 μM) | Degree of regiospecificity (major glucuronide in bracket) (UGT1A9; UGT1A9, substrate 10 μM) | Degree of regiospecificity (major glucuronide in bracket) (UGT1A1; UGT1A1, substrate 2.5 μM) | Degree of regiospecificity (major glucuronide in bracket) (UGT1A1; UGT1A1, substrate 10 μM) | Glucuronidation and regiospecificity across the 8 UGT isoforms [1] | other results
5 | O=c1c(O)c(-c2ccccc2)oc2cc(O)cc(O)c12 [5,7DHFnol, 3,5,7-trihydroxyflavone] | Dominant (7-O) | dominantly regiospecific for 7-O; also recorded: Dominant (7-O) | Weak (3-O) | did not show any regiospecific preference for any position; also recorded: No (3-O, 7-O) | Weak (7-O) | weakly preferred the glucuronidation of 7-O over 3-O position; also recorded: Weak (7-O) |  | Degree of regiospecificity (major glucuronide in bracket) (UGT1A9; UGT1A9, substrate 10 μM, listed as 5,7THFnol): 3-O and 7-O were glucuronidated at comparable rates
6 | O=c1c(O)c(-c2ccccc2)oc2cc(O)ccc12 [7HFnol, 3,7-dihydroxyflavone] | Moderate (7-O) | dominantly regiospecific by glucuronidating hydroxyl group only at C-7 position; also recorded: Dominant (7-O) | moderate regiospecificity for 3-O position | moderate regiospecificity for 3-O position | weak regiospecificity for 7-O position; also recorded: weakly preferred the glucuronidation of 7-O position | no preference; also recorded: did not show any regiospecific preference; also recorded: no regiospecificity; also recorded: No (3-O,7-O) |  | Degree of regiospecificity (3-O vs 7-O) (UGT1A8): moderate regiospecificity for 3-O position; Degree of regiospecificity (3-O vs 7-O) (UGT1A9; UGT1A9, substrate 35 μM): no regiospecificity; Hydroxyl positions glucuronidated (UGT1A6): no position was glucuronidated; Degree of regiospecificity (3-O vs 7-O) (UGT1A1; UGT1A1, substrate 35 μM): no regiospecificity
